Measurements reported in PMC10882719 (Frontiers in Neuroscience, 2024).
Read-outs that look alike come from different tables or passages of the source.

Experiments:
Type in all cases: cell-based
168 GPCRs [1] = target: T1, 168 GPCRs (Homo sapiens, UniProt P32238); settings: CCKAR
T1 construct: host or cells: PathHunter cell lines
T1 sequence (P32238 1-428): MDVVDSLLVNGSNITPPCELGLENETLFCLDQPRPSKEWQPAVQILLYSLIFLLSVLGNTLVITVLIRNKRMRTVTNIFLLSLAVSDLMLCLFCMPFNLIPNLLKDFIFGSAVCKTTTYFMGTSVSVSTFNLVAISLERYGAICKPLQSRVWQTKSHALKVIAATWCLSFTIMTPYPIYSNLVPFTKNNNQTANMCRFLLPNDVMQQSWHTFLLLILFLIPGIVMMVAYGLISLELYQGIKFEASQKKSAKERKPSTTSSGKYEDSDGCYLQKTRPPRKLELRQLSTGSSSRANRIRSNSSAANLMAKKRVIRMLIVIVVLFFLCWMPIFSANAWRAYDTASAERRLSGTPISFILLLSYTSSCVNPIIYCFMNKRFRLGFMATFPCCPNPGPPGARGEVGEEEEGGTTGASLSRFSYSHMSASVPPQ

168 GPCRs [2] = target: T2, 168 GPCRs (Homo sapiens, UniProt P43119); settings: PTGIR
T2 construct: host or cells: PathHunter cell lines
T2 sequence (P43119 whole entry): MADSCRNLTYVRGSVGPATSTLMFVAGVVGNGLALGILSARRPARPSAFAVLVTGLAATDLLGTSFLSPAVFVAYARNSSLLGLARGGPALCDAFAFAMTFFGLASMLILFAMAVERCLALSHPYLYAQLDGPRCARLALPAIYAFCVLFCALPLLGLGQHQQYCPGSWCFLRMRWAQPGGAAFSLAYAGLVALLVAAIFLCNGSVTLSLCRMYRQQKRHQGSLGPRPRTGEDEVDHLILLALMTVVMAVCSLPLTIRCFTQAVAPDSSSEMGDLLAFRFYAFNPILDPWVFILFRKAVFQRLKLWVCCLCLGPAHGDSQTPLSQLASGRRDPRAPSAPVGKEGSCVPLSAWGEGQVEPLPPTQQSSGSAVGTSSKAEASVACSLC

168 GPCRs [3] = target: T3, 168 GPCRs (Homo sapiens, UniProt Q15722); settings: LTB4R
T3 construct: host or cells: PathHunter cell lines
T3 sequence (Q15722 whole entry): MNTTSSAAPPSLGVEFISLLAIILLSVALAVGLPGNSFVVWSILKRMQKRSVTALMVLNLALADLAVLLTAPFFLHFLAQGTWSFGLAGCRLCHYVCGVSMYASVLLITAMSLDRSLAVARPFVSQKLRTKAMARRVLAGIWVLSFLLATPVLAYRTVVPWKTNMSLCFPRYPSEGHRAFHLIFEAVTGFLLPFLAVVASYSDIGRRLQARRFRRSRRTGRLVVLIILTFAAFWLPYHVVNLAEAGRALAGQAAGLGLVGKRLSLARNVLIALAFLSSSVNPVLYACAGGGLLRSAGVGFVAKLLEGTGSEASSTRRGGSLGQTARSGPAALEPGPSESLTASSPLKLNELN

168 GPCRs [4] = target: T4, 168 GPCRs (Homo sapiens, UniProt P22888); settings: LHCGR
T4 construct: host or cells: PathHunter cell lines
T4 sequence (P22888 27-699): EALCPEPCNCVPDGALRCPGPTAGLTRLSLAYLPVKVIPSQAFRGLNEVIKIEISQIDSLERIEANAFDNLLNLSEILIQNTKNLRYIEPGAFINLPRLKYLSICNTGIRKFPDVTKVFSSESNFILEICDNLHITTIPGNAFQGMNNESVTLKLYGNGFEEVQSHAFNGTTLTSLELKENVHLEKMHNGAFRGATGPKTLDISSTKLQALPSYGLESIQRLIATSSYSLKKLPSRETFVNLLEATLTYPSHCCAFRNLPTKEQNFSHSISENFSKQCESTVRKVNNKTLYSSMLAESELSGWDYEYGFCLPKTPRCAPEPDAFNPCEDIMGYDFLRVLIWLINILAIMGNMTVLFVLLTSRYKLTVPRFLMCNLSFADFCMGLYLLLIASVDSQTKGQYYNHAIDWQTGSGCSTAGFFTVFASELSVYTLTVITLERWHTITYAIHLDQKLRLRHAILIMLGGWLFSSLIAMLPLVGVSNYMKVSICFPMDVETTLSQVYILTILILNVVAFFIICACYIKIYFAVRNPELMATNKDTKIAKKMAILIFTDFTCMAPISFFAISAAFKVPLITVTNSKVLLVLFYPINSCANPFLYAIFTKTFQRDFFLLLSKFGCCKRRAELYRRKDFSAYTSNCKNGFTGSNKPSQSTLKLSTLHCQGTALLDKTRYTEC

168 GPCRs [5] = target: T5, 168 GPCRs (Homo sapiens, UniProt P41968); settings: MC3R
T5 construct: host or cells: PathHunter cell lines
T5 sequence (P41968 whole entry): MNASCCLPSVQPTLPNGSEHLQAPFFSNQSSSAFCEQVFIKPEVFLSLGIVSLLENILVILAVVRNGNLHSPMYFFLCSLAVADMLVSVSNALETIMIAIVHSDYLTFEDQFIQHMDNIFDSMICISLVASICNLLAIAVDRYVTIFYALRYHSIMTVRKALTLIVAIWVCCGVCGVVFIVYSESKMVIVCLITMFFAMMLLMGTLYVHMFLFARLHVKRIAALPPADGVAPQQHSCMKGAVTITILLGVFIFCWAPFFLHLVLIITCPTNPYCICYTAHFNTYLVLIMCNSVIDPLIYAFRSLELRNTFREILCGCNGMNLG

168 GPCRs [6] = target: T6, 168 GPCRs (Homo sapiens, UniProt P49682)
T6 construct: host or cells: PathHunter cell lines
T6 sequence (P49682 1-368): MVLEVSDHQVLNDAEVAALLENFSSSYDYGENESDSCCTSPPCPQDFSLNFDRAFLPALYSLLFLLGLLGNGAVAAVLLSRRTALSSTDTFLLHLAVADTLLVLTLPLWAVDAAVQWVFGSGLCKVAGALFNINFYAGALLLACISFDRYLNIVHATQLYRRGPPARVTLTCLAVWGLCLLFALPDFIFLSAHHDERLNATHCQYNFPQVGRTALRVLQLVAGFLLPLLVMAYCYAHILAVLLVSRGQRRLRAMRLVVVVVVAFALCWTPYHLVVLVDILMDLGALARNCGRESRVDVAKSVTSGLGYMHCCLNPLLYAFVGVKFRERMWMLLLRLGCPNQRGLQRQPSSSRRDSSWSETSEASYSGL

168 GPCRs [7] = target: T7, 168 GPCRs (Homo sapiens, UniProt P32302)
T7 construct: host or cells: PathHunter cell lines
T7 sequence (P32302 1-372): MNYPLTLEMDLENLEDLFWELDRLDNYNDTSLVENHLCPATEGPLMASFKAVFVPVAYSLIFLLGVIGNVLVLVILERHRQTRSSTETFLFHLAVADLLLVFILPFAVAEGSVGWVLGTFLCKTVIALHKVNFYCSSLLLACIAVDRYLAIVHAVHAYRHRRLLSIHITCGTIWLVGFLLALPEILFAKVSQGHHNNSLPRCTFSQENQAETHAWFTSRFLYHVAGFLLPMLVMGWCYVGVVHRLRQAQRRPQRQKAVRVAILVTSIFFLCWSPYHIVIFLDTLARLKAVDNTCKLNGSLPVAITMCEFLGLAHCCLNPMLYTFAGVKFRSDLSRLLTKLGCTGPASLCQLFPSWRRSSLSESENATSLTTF

168 GPCRs [8] = target: T8, 168 GPCRs (Homo sapiens, UniProt P24530); settings: EDNRB
T8 construct: host or cells: PathHunter cell lines
T8 sequence (P24530 27-442): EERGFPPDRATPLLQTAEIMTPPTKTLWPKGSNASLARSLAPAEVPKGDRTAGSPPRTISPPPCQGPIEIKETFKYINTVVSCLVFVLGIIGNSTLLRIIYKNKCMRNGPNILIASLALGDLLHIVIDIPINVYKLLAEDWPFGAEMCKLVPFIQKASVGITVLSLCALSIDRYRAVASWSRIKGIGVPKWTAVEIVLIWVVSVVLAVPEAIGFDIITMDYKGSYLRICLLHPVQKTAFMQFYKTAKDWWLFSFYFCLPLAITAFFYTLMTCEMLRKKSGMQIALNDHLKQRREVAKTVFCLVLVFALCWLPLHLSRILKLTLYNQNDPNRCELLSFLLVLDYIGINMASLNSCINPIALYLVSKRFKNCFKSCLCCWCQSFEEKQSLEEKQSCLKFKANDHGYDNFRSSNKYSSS

SMILES	% Agonist Activity (168 GPCRs [1]; 1 uM)	% Antagonist Activity (168 GPCRs [1]; 1 uM)	% Agonist Activity (168 GPCRs [1]; 10 uM)	% Antagonist Activity (168 GPCRs [1]; 10 uM)	% Agonist Activity (168 GPCRs [2]; Conc 1 uM)	% Antagonist Activity (168 GPCRs [2]; Conc 1 uM)	% Agonist Activity (168 GPCRs [2]; Conc 10 uM)	% Antagonist Activity (168 GPCRs [2]; Conc 10 uM)	% Agonist Activity (168 GPCRs [3]; 1 uM)	% Antagonist Activity (168 GPCRs [3]; 1 uM)	% Agonist Activity (168 GPCRs [3]; 10 uM)	% Antagonist Activity (168 GPCRs [3]; 10 uM)	% Agonist Activity (168 GPCRs [4]; 1 uM)	% Antagonist Activity (168 GPCRs [4]; 1 uM)	% Agonist Activity (168 GPCRs [4]; 10 uM)	% Antagonist Activity (168 GPCRs [4]; 10 uM)	% Agonist Activity (168 GPCRs [5]; 1 uM)	% Antagonist Activity (168 GPCRs [5]; 1 uM)	% Agonist Activity (168 GPCRs [5]; 10 uM)	% Antagonist Activity (168 GPCRs [5]; 10 uM)	also measured
CNC(C)Cc1ccc2c(c1)OCO2 (stereo not shown) [MDMA, 3,4-Methylenedioxy methamphetamine, reference compound]	-0.1%	-2.2%	0.4%	0.7%	2.3%	18.8%	8.6%	22.7%	0.5%	8.9%	0.5%	11.3%	2.4%	1.2%	0.9%	-1%	0.7%	5.9%	1.3%	1.9%	% Agonist Activity (168 GPCRs [6]; CXCR3, 1 uM): -3.7%; % Antagonist Activity (168 GPCRs [6]; CXCR3, 1 uM): 11.3%; % Agonist Activity (168 GPCRs [6]; CXCR3, 10 uM): -4.7%; % Antagonist Activity (168 GPCRs [6]; CXCR3, 10 uM): 17.9%; % Agonist Activity (168 GPCRs [7]; CXCR5, 1 uM): 2.7%; % Antagonist Activity (168 GPCRs [7]; CXCR5, 1 uM): -4.4%; % Agonist Activity (168 GPCRs [7]; CXCR5, 10 uM): 1.4%; % Antagonist Activity (168 GPCRs [7]; CXCR5, 10 uM): 3.2%; % Agonist Activity (168 GPCRs [8]; 1 uM): 0%; % Antagonist Activity (168 GPCRs [8]; 1 uM): 2.5%; % Agonist Activity (168 GPCRs [8]; 10 uM): -0.3%; % Antagonist Activity (168 GPCRs [8]; 10 uM): 6.4%
CNC(C)C(=O)c1ccc2c(c1)OCO2 (stereo not shown) [methylone]	0.1%	-4.3%	-0.3%	-3.3%	-4.4%	12.4%	-2.3%	-21.5%	-0.3%	3.5%	-0.8%	-5.2%	0.4%	13.8%	0.4%	11.2%	-3.2%	-5.7%	-1.8%	0.3%	% Agonist Activity (168 GPCRs [6]; CXCR3, 1 uM): -0.2%; % Antagonist Activity (168 GPCRs [6]; CXCR3, 1 uM): 4.5%; % Agonist Activity (168 GPCRs [6]; CXCR3, 10 uM): 1.6%; % Antagonist Activity (168 GPCRs [6]; CXCR3, 10 uM): -3.9%; % Agonist Activity (168 GPCRs [7]; CXCR5, 1 uM): 2.5%; % Antagonist Activity (168 GPCRs [7]; CXCR5, 1 uM): -4.3%; % Agonist Activity (168 GPCRs [7]; CXCR5, 10 uM): 1.4%; % Antagonist Activity (168 GPCRs [7]; CXCR5, 10 uM): -15.1%; % Agonist Activity (168 GPCRs [8]; 1 uM): 0.7%; % Antagonist Activity (168 GPCRs [8]; 1 uM): 17.5%; % Agonist Activity (168 GPCRs [8]; 10 uM): -0.1%; % Antagonist Activity (168 GPCRs [8]; 10 uM): 10.9%
